Data from the METLIN SMRT retention time set (Domingo-Almenara et al. 2019).

Assay: gradient 5% acetonitrile 3 min, to 50% in 2 min, to 85% in 15 min, held 3 min, 100 µL/min
Conditions: column: Zorbax Extend-C18 2.1 x 50 mm; eluents: water / acetonitrile, 0.1% formic acid
Method in brief: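 Values are retention times taken from adduct peaks that software picked and an analyst inspected. The pure standards were run as mixtures of ~100 molecules on HPLC linked to a quadrupole time-of-flight mass spectrometer, in positive and negative ionization mode. A Zorbax Extend-C18 column (2.1 × 50 mm, 1.8 μm) was used at 100 μL/min with water and acetonitrile, each including 0.1% formic acid.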

| Structure (SMILES) | RP-LC retention time |
| --- | --- |
| Cn1nccc1-c1cccc(-c2noc(-c3ccsc3)n2)c1 | 1020 s |
| Cc1ccc(-c2ccc(=O)n(CCc3nc(-c4ccccc4)no3)n2)cc1C | 1050 s |
| O=C(Cn1nc(C(=O)N2CCCC2)c2ccccc21)NCc1cccs1 | 753 s |
| O=C(Nc1ccccc1C(F)(F)F)N(CCc1cccs1)C1CC1 | 1100 s |
| Cn1c(CN2CCN(C(=O)c3ccco3)CC2)nc2cc(NC(=O)C3CCCCC3)ccc21 | 664 s |
| CC1=C(c2ccc(C)cc2)S(=O)(=O)N=C1N1CCCN(C(=O)c2ccccc2C)CC1 | 898 s |
| c1ccc(-c2cnn3cc(-c4ccc(OCCN5CCOCC5)cc4)cnc23)cc1 | 818 s |
| CC(C)N1C(=O)C(C)(C(=O)NCc2ccccc2)Oc2cccnc21 (stereo unspecified) | 912 s |
| CC1=C(c2ccc(C)cc2)S(=O)(=O)N=C1N1CCCN(C(=O)c2ccc(F)cc2)CC1 | 859 s |
| CC(C)CN1C(=O)CCc2cc(NS(=O)(=O)c3ccc(F)cc3)ccc21 | 861 s |
| CC(Cc1ccco1)NC(=O)CCCn1c2ccccc2c2cnn(C)c(=O)c21 (stereo unspecified) | 775 s |
| CCN1C(=O)c2cccnc2Sc2cc(CNC(=O)c3cc(OC)cc(OC)c3)ccc21 | 777 s |
| CCCOC(=O)c1[nH]c2c(c1C)C(=O)CC(c1cc(OC)c(OC)c(OC)c1)C2 (stereo unspecified) | 610 s |
| Cc1cc(Cl)ccc1NS(=O)(=O)c1cc(-c2[nH]ncc2C(=O)N(C)C)oc1C | 730 s |
| Cc1cc(C)c(NC(=O)Cn2nc(N3CCCC(C)C3)c3ccccc3c2=O)c(C)c1 (stereo unspecified) | 1180 s |
| CNS(=O)(=O)c1cccnc1Nc1ccc(F)c(Cl)c1 | 973 s |
| O=S(=O)(NCC(O)C1CCCCC1)c1cccc2ccccc12 (stereo unspecified) | 902 s |
| O=C(Nc1ccc2c(c1)CN(S(=O)(=O)c1ccccc1)CC2)c1cc(-c2ccco2)on1 | 1010 s |
| OC(CNCc1ccc(-c2ccc(Cl)cc2Cl)o1)c1ccccc1 (stereo unspecified) | 800 s |
| CCC(N)Cc1c[nH]c2ccccc12 (stereo unspecified) | 646 s |
| CCOC(=O)c1[nH]c(C)c(CCC(=O)N2CCC(C(=O)NCCCN3CCCC(C)C3)CC2)c1C (stereo unspecified) | 604 s |
| COCCc1noc(C2Cc3ccccc3N2C(=O)NCc2ccc(OC)cc2)n1 (stereo unspecified) | 904 s |
| COc1cccc(Nc2c(-c3ccc(Cl)cc3)nc3cnccn23)c1 | 961 s |

| Structure (SMILES) | RP-LC retention time |
| --- | --- |
| O=C(NC1CCCCC1)c1ccc2c(c1)nc1n2CCN(C2CCCCC2)C1=O | 796 s |
| COc1ccc(-c2nc(C3CC(=O)N(c4ccc(OC)c(OC)c4)C3)no2)cc1F (stereo unspecified) | 853 s |
| COc1ccc(-c2cc3nn(CC(=O)Nc4cccc(OC)c4)c(=O)n3c(C)n2)cc1 | 681 s |
| Cc1cc(C)n(-c2ccnc(N3CCC(C(=O)NCc4ccccc4)CC3)n2)n1 | 832 s |
| Cc1ccc(C)c(N2CCN(c3ccnc(SCC(=O)Nc4cccc(Cl)c4C)n3)CC2)c1 | 1020 s |
| CC(=O)Nc1ccc(-n2cnc(C(=O)NCCC3=CCCCC3)c2)nc1 | 739 s |
| c1cnc(-c2n[nH]c(C3CCN(Cc4ccsc4)CC3)n2)cn1 | 559 s |
| COc1cccc(OC)c1OCCNCC1COc2ccccc2O1 (stereo unspecified) | 767 s |
| CCCC(=O)Nc1ccc2nc(N3CCN(c4ccc(OC)cc4)CC3)cc(C(=O)O)c2c1 | 633 s |
| Cc1cc(N2CCCC2)n2nc(CN3CCCC(C)C3)nc2n1 (stereo unspecified) | 571 s |
| CC(=O)N1c2ccc(S(=O)(=O)N3CCCC3)cc2CC1C(=O)N1CCN(c2ccccn2)CC1 (stereo unspecified) | 609 s |
| COc1ccc(C(=O)N2CCCC2c2nc(-c3ccc(OC)cc3)no2)cc1 (stereo unspecified) | 957 s |
| CCN(CC)C(=O)c1ccc2nc(-c3ccc(Cl)cc3)cn2c1 | 681 s |
| COc1ccccc1NC(=O)N1CCCC(C)(C(=O)NCc2ccccc2C)C1 (stereo unspecified) | 859 s |
| COC(=O)CCc1sc(Nc2c(C)n[nH]c2C)nc1-c1ccc(OC)cc1 | 664 s |
| CC1CC(=O)N(CC(=O)Nc2ccc(F)cc2F)c2ccccc2S1 (stereo unspecified) | 914 s |
| O=C(CSc1ccc(N2CCCC(C(=O)NC3CC3)C2)nn1)Nc1cccc(Cl)c1 (stereo unspecified) | 689 s |
| CCc1ccccc1S(=O)(=O)N1CCC2(CC1)C(=O)N(CC)c1ccccc12 | 1130 s |
| CC(C)(C)C(=O)N1CCCC(C(=O)N2CCOCC2)C1 (stereo unspecified) | 625 s |
| CC(C)CNC(=O)CN1CCN(Cc2cccc(Cl)c2)C1=O | 748 s |
| O=C(CCc1nc(C2=CCN(Cc3ccc(Cl)cc3)CC2)no1)NC1CC1 | 890 s |
| COc1ccc2c(c1)C=C(C(=O)Nc1ccc(OC)cc1OC)C=CO2 | 699 s |
| C#CCSc1nc2ccc([N+](=O)[O-])cc2s1 | 935 s |

| Structure (SMILES) | RP-LC retention time |
| --- | --- |
| CC1(C)Cc2cccc(OCC(=O)NCc3n[nH]c(=O)c4ccccc34)c2O1 | 661 s |
| O=S(=O)(Nc1ccc(Cl)cc1F)c1c[nH]c2ncccc12 | 740 s |
| CCOc1ccc(S(=O)(=O)N2CCC(C(=O)NCCc3ccc(OC)c(OC)c3)CC2)cc1C | 901 s |
| O=C(NCc1ccccc1F)C1CCN(c2cnc(N3CCCC3)nc2)CC1 | 654 s |
| CN(C)c1ncccc1NC(=O)c1cccc(C#N)c1 | 585 s |
| Cc1ccc(-c2cn3c(n2)N(C(=O)Cn2ccnc2C)CCC3)cc1 | 628 s |
| COc1ccc(C2Cn3nnc(-c4nc(-c5cccc(C)c5)no4)c3CO2)cc1 (stereo unspecified) | 1190 s |
| Cc1nn(C)cc1CN(C)C(=O)CCC1CCCN(c2cc(NC3CC3)ncn2)C1 (stereo unspecified) | 597 s |
| CC1(C)CC(=O)c2cn(-c3ccc(F)cc3)c(=O)c(C(=O)NC3CCCC3)c2C1 | 957 s |
| COC(=O)CNC(=O)Cc1c(C)nn(-c2nc(-c3ccc(Cl)cc3)cs2)c1C | 1010 s |
| Cc1cc(C)cc(OCC(=O)Nc2nc(-c3ccccc3)cs2)c1 | 1210 s |
| CCOc1ccc(NC(=O)Cn2c(C)cc(-c3nnc(C4CCC4)o3)c2C)cc1 | 896 s |
| Fc1ccc(-c2cc(CN3CCCC3)[nH]n2)cc1 | 594 s |
| CC(C)c1cccc(NC(=O)C2CCN(C(=O)c3ncn4c3COC(c3ccccc3)C4)CC2)c1 (stereo unspecified) | 921 s |
| Fc1ccc(C(OCCN2CCN(CCCc3ccccc3)CC2)c2ccc(F)cc2)cc1 | 957 s |
| O=C(C1CCCO1)N1CCc2ccc(NS(=O)(=O)c3ccc(F)c(Cl)c3)cc21 (stereo unspecified) | 813 s |
| Cc1cc(C)cc(NS(=O)(=O)c2cc(-c3nc(C)cs3)cs2)c1 | 1010 s |
| O=C(c1ccsc1)N1CCC2(CCC2N2CCOCC2)CC1 (stereo unspecified) | 581 s |
| CC(NC(=O)c1cc2ccccc2[nH]1)C(=O)N1CCN(c2ccccn2)CC1 (stereo unspecified) | 612 s |
| O=C(Nc1cccc(-c2ccc(N3CCOCC3)nn2)c1)Nc1ccc2c(c1)CCC2 | 792 s |
| COCCN1C(=O)CCc2cc(NS(=O)(=O)c3cc(C)ccc3C)ccc21 | 1060 s |
| Cc1ccc(-c2nc3n(CC(=O)N4CCOCC4)c4c(c(=O)n3n2)CCC4)cc1 | 699 s |
| Cc1noc(C)c1C(=O)N1CCCn2ccnc2C1C1CCCC1 (stereo unspecified) | 587 s |

| Structure (SMILES) | RP-LC retention time |
| --- | --- |
| Cn1nc(-c2ccccc2)cc1N | 599 s |
| O=C(Nc1cnc(N2CCCCCC2)nc1)c1ccc(Br)o1 | 952 s |
| Cc1nn(C(C)C(=O)NCCCN2CCCCC2)c(=O)c2c(-n3cccc3)n(-c3ccccc3)nc12 (stereo unspecified) | 700 s |
| CC(C)NC(=O)c1ccc(OCC2CCCN(C(=O)c3c(F)cccc3F)C2)cc1 (stereo unspecified) | 841 s |
| COCCNC(=O)C1CCN(c2ncnc3c2oc2ccccc23)CC1 | 617 s |
| CCCN(CC1CCOC1)C(=O)c1ccccc1Br (stereo unspecified) | 801 s |
| Cc1noc(-c2ccnc(-n3cnc(C(=O)NC4CCCCCC4)c3)c2)n1 | 915 s |
| CCC(=O)N1CCc2cc(-c3ccc(C(=O)NC(C)C)cc3)ccc21 | 832 s |
| COc1ccccc1-c1noc(C2CCCN2C(=O)c2cccs2)n1 (stereo unspecified) | 849 s |
| O=C(CCc1ccc2cc[nH]c2c1)NCc1ccc(F)cc1 | 808 s |
| Cc1nn(CCC(=O)Nc2ccccc2Cl)c(=O)c2nn(-c3ccccc3)c(C)c12 | 827 s |
| Cc1cc(N2CCN(c3ccccc3)CC2)n2nc(-c3cccnc3)nc2n1 | 863 s |
| C=CCn1c(SCC#CCO)nc2ccccc2c1=O | 744 s |
| CCc1cccc(C)c1NC(=O)C1CCCN(c2nnc(C)c3c(C)n(-c4ccccc4)nc23)C1 (stereo unspecified) | 775 s |
| CCCCNC(=O)C1CCCN(c2nnc3ccc(C(F)(F)F)cn23)C1 (stereo unspecified) | 751 s |
| CC(C)c1noc(-c2cccnc2N2CCCN(Cc3cccc(Cl)c3)CC2)n1 | 742 s |
| CCn1c(C(=O)NCCN2CCCCCC2)c(N2CCCC2=O)c2cc(F)ccc21 | 664 s |
| CCCC(=O)Nc1nc2ccc(CCC(=O)Nc3cc(Cl)c(OC)cc3OC)cc2s1 | 920 s |
| CCCn1c(C)c(C)c(S(=O)(=O)c2ccc(OC)cc2)c1NC(=O)C1CCCO1 (stereo unspecified) | 898 s |
| COCC(=O)Nc1nc(-c2ccc3c(c2)N(C)C(=O)CO3)c(C)s1 | 764 s |
| COc1ccc(OC)c(S(=O)(=O)N2CCC(n3cnc4ccc(C)cc4c3=O)CC2)c1 | 881 s |
| Cc1noc([C@@H]2CN(C(=O)c3cn[nH]c3)C[C@H]2C(N)=O)n1 | 536 s |
